Test results taken from patent publication US7829297B2, “Treatment of cancers expressing p95 ErbB2” (GlaxoSmithKline LLC, priority 2003, dated 2010).

Assays:
BT474 cells = test: Proliferation of BT474 cells; assay type: cell-based, human
p95^ErbB2 [1] = test: p95ErbB2 in BT474 tumor xenografts (Western blot); assay type: in vivo, mice
Description: (§1) BT474 tumor xenografts were established in CD-1 nude mice.

p185^ErbB2 [2] = biological target: T1, p185^ErbB2 (Homo sapiens, UniProt P04626); test: p185ErbB2 in BT474 tumor xenografts (Western blot); assay type: in vivo, mice; set-up: The full-length ErbB2 receptor (p185^ErbB2); from tissue; host or cells: BT474 tumour xenografts in mice; conditions: GW572016 100 mg/kg/dose PO or trastuzumab IP
T1 sequence (P04626 23-1255): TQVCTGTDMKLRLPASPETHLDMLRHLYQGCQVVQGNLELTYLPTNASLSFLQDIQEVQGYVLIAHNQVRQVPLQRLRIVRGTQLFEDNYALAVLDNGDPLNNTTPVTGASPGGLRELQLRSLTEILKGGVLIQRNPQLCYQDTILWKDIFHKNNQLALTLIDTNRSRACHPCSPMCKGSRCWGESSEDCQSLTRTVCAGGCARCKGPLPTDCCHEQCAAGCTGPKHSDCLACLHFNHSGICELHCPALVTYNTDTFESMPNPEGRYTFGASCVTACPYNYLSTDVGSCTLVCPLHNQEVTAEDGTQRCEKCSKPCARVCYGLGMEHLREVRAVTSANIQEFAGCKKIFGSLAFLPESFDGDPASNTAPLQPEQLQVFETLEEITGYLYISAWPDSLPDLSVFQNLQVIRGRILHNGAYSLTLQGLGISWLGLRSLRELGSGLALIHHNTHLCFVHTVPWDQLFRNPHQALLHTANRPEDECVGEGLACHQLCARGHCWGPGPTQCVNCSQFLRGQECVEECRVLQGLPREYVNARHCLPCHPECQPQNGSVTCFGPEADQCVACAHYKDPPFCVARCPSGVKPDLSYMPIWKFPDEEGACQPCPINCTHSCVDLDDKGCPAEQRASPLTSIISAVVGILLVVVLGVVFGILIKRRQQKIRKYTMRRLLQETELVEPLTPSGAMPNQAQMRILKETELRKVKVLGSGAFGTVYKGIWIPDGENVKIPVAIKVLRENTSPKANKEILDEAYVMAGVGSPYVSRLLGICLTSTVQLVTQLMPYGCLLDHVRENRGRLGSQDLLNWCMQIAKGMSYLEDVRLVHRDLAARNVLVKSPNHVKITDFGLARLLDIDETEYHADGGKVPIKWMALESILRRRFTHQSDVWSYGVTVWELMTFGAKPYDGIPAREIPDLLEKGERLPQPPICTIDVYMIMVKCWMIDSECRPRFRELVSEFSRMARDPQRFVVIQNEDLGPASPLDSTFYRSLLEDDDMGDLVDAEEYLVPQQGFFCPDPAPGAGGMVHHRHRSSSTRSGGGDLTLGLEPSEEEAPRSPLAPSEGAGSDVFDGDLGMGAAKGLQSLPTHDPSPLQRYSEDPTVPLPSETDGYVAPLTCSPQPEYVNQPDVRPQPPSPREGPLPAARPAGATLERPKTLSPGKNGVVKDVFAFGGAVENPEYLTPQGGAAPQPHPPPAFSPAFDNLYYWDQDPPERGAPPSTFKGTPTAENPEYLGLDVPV
Description: as §1

p185^ErbB2 [3] = biological target: T1, p185^ErbB2; test: Western blot of p185ErbB2 in BT474 cells; assay type: cell-based; set-up: The full-length ErbB2 receptor (p185^ErbB2); endogenous in cells; host or cells: BT474
Description: (§2) Equal amounts of protein were separated by SDS-PAGE and then ErbB2, p95^ErbB2, pTyr/p95^ErbB2, and pTyr/ErbB2 steady state protein levels were assessed by Western blot. […] Along the left side of the lanes, the uppermost arrow indicates p185; lower arrowhead indicates p95. Molecular weights are indicated on the right side of the figure.

ErbB3 = ErbB3 phosphorylation in BT474 tumor xenografts (IP Western blot); conditions: 100 mg/kg/dose, compared with vehicle
Description: Tumors were removed 4 hours after the last dose, frozen in liquid Nitrogen, and stored at −80° C. until analysis. For the terminal biopsy, mice were euthanized with CO2 inhalation. Cell extracts were prepared by homogenization in RIPA buffer at 4° C.
As shown in FIG. 6a-6c, the activation-state of EGFR, p185^ErbB2, p95^ErbB2, and ErbB3 was assessed by IP Western blot.

p95^ErbB2 [4] = test: Western blot of p95ErbB2 in BT474 cells; assay type: cell-based, human
Description: as §2

p95 = test: Western blot of phospho-p95 in S1 cells; conditions: 5 μM, 24 hours
[5] = tested on: MAPK-Erk1/2 and PI3K-AKT pathways, cyclin D1/2; test: Downstream signaling in BT474 tumor xenografts (Western blot); assay type: in vivo, mice
Description: Equal amounts of protein from tumor xenograft whole cell extracts were separated by SDS-PAGE and steady state protein levels of total and phosphorylated forms Erk1/2 and AKT were assessed by Western blot. Cyclin D1/2 steady state protein levels were also determined.

Erk1/2 and AKT = test: Activation of Erk1/2 and AKT by EGF and heregulin in BT474 cells; assay type: cell-based, human; conditions: 1 μM
[6] = tested on: solid tumor overexpressing or expressing activated EGFR or ErbB2; test: Open label, multi-dose clinical trial in subjects with cancer; assay type: in vivo, human
p185^ErbB2 [7] = biological target: T1, p185^ErbB2; test: Western blot of phospho-p185ErbB2 in S1 cells; conditions: 5 μM, 24 hours
p185^ErbB2 [8] = biological target: T1, p185^ErbB2; test: Western blot of phospho-p185ErbB2 in Hb4a cells; conditions: parental Hb4a cells, 5 μM, 24 hours
[9] = 24 hours, 0.5 μM GW572016 or 10 μg/ml trastuzumab
[10] = GW572016 or trastuzumab (10 mg/kg)
[11] = 11 breast cancer subjects previously treated with trastuzumab

Compound: CS(=O)(=O)CCNCc1ccc(-c2ccc3ncnc(Nc4ccc(OCc5cccc(F)c5)c(Cl)c4)c3c2)o1 [GW572016, N-{3-Chloro-4-[(3-fluorobenzyl)oxy]phenyl}-6-[5-({[2-(methylsulfonyl)ethyl]amino}methyl)-2-furyl]-4-quinazolinamine]
- proliferation of BT474 cells (BT474 cells): inhibited
- reversal of antiproliferative effect in the presence of EGF (BT474 cells; BT474 cells): not completely reversed
- effect of prolonged incubation on protection by heregulin (BT474 cells; BT474 cells, 1 μM, prolonged incubation (data not shown)): abrogated the protective effects of heregulin
- reversal of inhibitory effects by addition of heregulin (BT474 cells; BT474 cells, 72 hour assay): partially reversed
- steady state protein levels of total p95ErbB2 (p95^ErbB2 [1]; GW572016 100 mg/kg/dose PO or trastuzumab IP): unchanged
- phospho-p95ErbB2 steady state protein levels (p95^ErbB2 [1]; GW572016 100 mg/kg/dose PO, 100 mg/kg): markedly inhibited
- Y1248 phosphorylation in p95ErbB2 (p95^ErbB2 [1]; GW572016 100 mg/kg/dose or trastuzumab): inhibited
- phospho-p185ErbB2 steady state protein levels (p185^ErbB2 [2]): inhibited
- steady state protein levels of total p185ErbB2 (p185^ErbB2 [2]): unchanged
- phosphorylation of p185ErbB2 in presence and absence of HRG and EGF (p185^ErbB2 [3]; 1 μM, 16 hours, ErbB2 IP): inhibited
- p185ErbB2 phosphorylation (anti-pTyr Western blot) (p185^ErbB2 [3]; 1 μM, 24 hours): inhibited
- steady-state p185ErbB2 protein levels (anti-ErbB2 ECD mAb) (p185^ErbB2 [3]; [9]): did not vary
- tyrosine phosphorylation of p185ErbB2 (anti-pTyr mAb) (p185^ErbB2 [3]; [9]): inhibited
- ErbB3 tyrosine phosphorylation (ErbB3): markedly inhibited
- phosphorylation of p95ErbB2 in presence and absence of HRG and EGF (p95^ErbB2 [4]; 1 μM, 16 hours, ErbB2 IP): inhibited
- HRG-induced p95ErbB2 phosphorylation (p95^ErbB2 [4]; 1 μM, 16 hours, HRG 5 nM 15 min, ErbB3 IP): partially blocked
- tyrosine phosphorylation of p95ErbB2 (anti-pTyr mAb) (p95^ErbB2 [4]; [9]): inhibited
- p95 phosphorylation (p95): inhibited
- total steady state protein levels of Erk1/2 and AKT [5]: without affecting
- cyclin D steady state protein levels [5, 10]: inhibited
- p-AKT steady state protein levels [5, 10]: inhibited
- p-Erk1/2 steady state protein levels [5, 10]: inhibited
- EGF-induced increase of p-Erk1/2 steady state protein levels (Erk1/2 and AKT; EGF 50 ng/ml 15 minutes): blocked
- HRG-induced AKT phosphorylation (Erk1/2 and AKT; HRG): partially inhibited
- Partial Responses among breast cancer subjects [6, 11]: three
- Stable Disease among breast cancer subjects [6, 11]: four
- breast cancer subjects exhibiting responses, of eleven ([6]; 11 breast cancer subjects, all previously treated with trastuzumab, oral ditosylate salt, daily): seven
- response of bone metastases ([6]; Patient No. 361, 1200 mg/day): did not respond
- time to disappearance of all subcutaneous nodules ([6]; Patient No. 361, 1200 mg/day): ≤ 28 days
- anterior abdominal wall nodules ([6]; Patient No. 372, 1200 mg/day): improved
- decrease in two right breast masses ([6]; Patient No. 372, 1200 mg/day, August to October 2002): 70%
- stable disease, number of subjects ([6]; adenocarcinoma of unknown primary origin): 1
- stable disease, number of subjects ([6]; colorectal cancer): 2
- stable disease, number of subjects ([6]; granular cell cancer): 1
- stable disease, number of subjects ([6]; head and neck cancer): 1
- total responses out of 33 subjects ([6]; initial 33 subjects with validated responses, all tumor types): 15
- stable disease, number of subjects ([6]; lung cancer): 1
- stable disease, number of subjects ([6]; ovarian cancer): 2
- p185ErbB2 phosphorylation (p185^ErbB2 [7]): inhibited
- phosphorylation of p185ErbB2 (p185^ErbB2 [8]): inhibited
